The NIST ThermoML archive (doi:10.1016/j.jct.2006.03.016)
Numbers after ± are expanded uncertainties.

Experiment: molar heat capacity at constant pressure
Settings: 101.33 kPa, Crystal, Small (less than 1 g) adiabatic calorimetry

[Cu] [copper]
Settings	molar heat capacity at constant pressure [J/K/mol]
14.2 K	0.1027 ± 0.017
15.68 K	0.2097 ± 0.018
16.38 K	0.2384 ± 0.018
16.77 K	0.2351 ± 0.018
17.8 K	0.3079 ± 0.019
19.33 K	0.4049 ± 0.019
21 K	0.5507 ± 0.021
22.76 K	0.7024 ± 0.022
24.89 K	0.9364 ± 0.023
27.19 K	1.257 ± 0.025
29.54 K	1.621 ± 0.027
32.17 K	2.071 ± 0.086
35.07 K	2.634 ± 0.088
35.81 K	2.796 ± 0.088
38.36 K	3.344 ± 0.091
38.95 K	3.483 ± 0.091
42.31 K	4.276 ± 0.094
46.05 K	5.166 ± 0.098
50.21 K	6.197 ± 0.11
54.08 K	7.128 ± 0.11
54.62 K	7.296 ± 0.11
56.1 K	7.632 ± 0.12
58.53 K	8.226 ± 0.12
59.11 K	8.36 ± 0.12
59.5 K	8.478 ± 0.12
63.71 K	9.435 ± 0.13
63.87 K	9.508 ± 0.13
68.55 K	10.6 ± 0.14
73.28 K	11.6 ± 0.14
78.07 K	12.55 ± 0.15
82.91 K	13.41 ± 0.16
87.8 K	14.23 ± 0.17
92.71 K	15 ± 0.22
93.13 K	15.06 ± 0.22
97.66 K	15.72 ± 0.22
97.7 K	15.7 ± 0.22
102.69 K	16.38 ± 0.23
107.7 K	16.96 ± 0.23
112.73 K	17.49 ± 0.24
117.78 K	18.01 ± 0.24
122.84 K	18.49 ± 0.24
127.92 K	18.95 ± 0.25
133 K	19.37 ± 0.25
138.1 K	19.74 ± 0.25
143.21 K	20.06 ± 0.26
148.33 K	20.36 ± 0.26
151.4 K	20.55 ± 0.26
153.45 K	20.66 ± 0.26
156.5 K	20.85 ± 0.26
158.58 K	20.95 ± 0.26
161.61 K	21.11 ± 0.26
166.74 K	21.37 ± 0.27
171.89 K	21.59 ± 0.27
177.04 K	21.77 ± 0.27
182.2 K	21.94 ± 0.27
187.36 K	22.15 ± 0.27
192.53 K	22.25 ± 0.27
197.69 K	22.35 ± 0.27
202.86 K	22.6 ± 0.27
203.62 K	22.66 ± 0.27
208.02 K	22.73 ± 0.28
208.7 K	22.81 ± 0.28
213.88 K	22.96 ± 0.28
219.05 K	23.11 ± 0.28
224.22 K	23.25 ± 0.28
229.39 K	23.33 ± 0.28
234.57 K	23.45 ± 0.28
239.76 K	23.52 ± 0.28
244.94 K	23.6 ± 0.28
247.71 K	23.62 ± 0.28
250.12 K	23.7 ± 0.28
253.15 K	23.76 ± 0.28
255.31 K	23.79 ± 0.28
261.84 K	23.83 ± 0.28
270.43 K	24.07 ± 0.28
275.79 K	24.13 ± 0.28
280.97 K	24.2 ± 0.29
286.16 K	24.27 ± 0.29
291.35 K	24.32 ± 0.29
296.54 K	24.39 ± 0.29
301.73 K	24.51 ± 0.29
306.93 K	24.55 ± 0.29
312.11 K	24.54 ± 0.29
317.29 K	24.59 ± 0.29
322.48 K	24.64 ± 0.29
327.67 K	24.69 ± 0.29
332.85 K	24.81 ± 0.29
338.04 K	24.86 ± 0.29
343.25 K	24.88 ± 0.29
348.43 K	25.04 ± 0.29

[Al+3].[Al+3].[O-2].[O-2].[O-2] [aluminum oxide (Al2O3)]
Settings	molar heat capacity at constant pressure [J/K/mol]
67.51 K	4.23 ± 0.094
72.34 K	5.283 ± 0.099
77.04 K	6.242 ± 0.11
81.8 K	7.403 ± 0.11
86.61 K	8.725 ± 0.12
91.44 K	10.14 ± 0.19
96.31 K	11.67 ± 0.2
101.2 K	13.33 ± 0.21
106.12 K	15.05 ± 0.22
111.05 K	16.78 ± 0.23
116.01 K	18.55 ± 0.24
120.97 K	20.4 ± 0.26
125.95 K	22.45 ± 0.27
126.3 K	22.61 ± 0.27
130.94 K	24.45 ± 0.29
131.11 K	24.51 ± 0.29
136.11 K	26.55 ± 0.3
141.13 K	28.63 ± 0.32
146.18 K	30.36 ± 0.33
151.22 K	32.53 ± 0.35
156.26 K	34.6 ± 0.37
161.32 K	36.54 ± 0.38
166.38 K	38.67 ± 0.4
171.45 K	40.51 ± 0.41
176.54 K	42.37 ± 0.43
181.62 K	44.42 ± 0.45
186.71 K	46.27 ± 0.46
191.8 K	48.19 ± 0.47
192.43 K	48.27 ± 0.48
197.63 K	50.37 ± 0.49
202.75 K	52.12 ± 0.51
207.86 K	53.85 ± 0.52
212.97 K	55.55 ± 0.54
218.09 K	57.33 ± 0.55
223.2 K	59.08 ± 0.56
228.33 K	60.72 ± 0.58
233.45 K	62.37 ± 0.59
238.56 K	63.95 ± 0.6
243.82 K	65.47 ± 0.62
248.97 K	66.83 ± 0.63
253.98 K	68.28 ± 0.64
259.13 K	69.78 ± 0.65
264.27 K	71.19 ± 0.67
269.43 K	72.53 ± 0.68
274.59 K	73.76 ± 0.69
279.73 K	74.97 ± 0.7
284.88 K	76.16 ± 0.71
290.03 K	77.34 ± 0.72
295.19 K	78.6 ± 0.73
300.35 K	79.79 ± 0.74
305.76 K	80.81 ± 0.74
311 K	82 ± 0.76
316.16 K	83.02 ± 0.76
321.33 K	83.65 ± 0.77
326.51 K	84.83 ± 0.78
331.66 K	86.08 ± 0.79

O=C(O)c1ccccc1 [benzoic acid]
Settings	molar heat capacity at constant pressure [J/K/mol]
15.95 K	7.243 ± 0.1
17.21 K	7.834 ± 0.11
19 K	9.964 ± 0.13
20.93 K	12.14 ± 0.15
22.91 K	14.48 ± 0.17
25.23 K	16.99 ± 0.19
27.83 K	19.32 ± 0.21
30.45 K	22.55 ± 0.24
33.46 K	25.66 ± 0.26
36.82 K	28.56 ± 0.29
40.35 K	31.83 ± 0.31
42.49 K	34.49 ± 0.34
44.38 K	35.05 ± 0.34
46.36 K	38.04 ± 0.37
50.06 K	39.2 ± 0.38
52.26 K	40.57 ± 0.39
54.24 K	41.94 ± 0.4
54.48 K	43.06 ± 0.41
56.71 K	43.66 ± 0.42
59.17 K	46.1 ± 0.44
59.64 K	45.51 ± 0.43
63.04 K	47.67 ± 0.45
67.38 K	50.03 ± 0.47
72.18 K	52.48 ± 0.49
77.01 K	54.7 ± 0.51
81.66 K	56.45 ± 0.53
86.47 K	58.38 ± 0.54
91.42 K	60.83 ± 0.58
96.33 K	62.66 ± 0.59
101.31 K	64.69 ± 0.61
106.39 K	66.75 ± 0.63
111.42 K	68.59 ± 0.64
116.46 K	70.27 ± 0.66
121.51 K	72.23 ± 0.67
126.57 K	74.39 ± 0.69
131.52 K	76.4 ± 0.71
136.54 K	78.39 ± 0.72
141.64 K	80.14 ± 0.74
146.72 K	81.95 ± 0.75
151.83 K	83.84 ± 0.77
156.96 K	85.94 ± 0.79
162.08 K	87.95 ± 0.81
167.21 K	90.16 ± 0.82
172.34 K	92.08 ± 0.84
177.47 K	93.88 ± 0.85
182.61 K	95.82 ± 0.87
187.75 K	97.76 ± 0.89
192.89 K	100.22 ± 0.91
198.03 K	102.35 ± 0.93
203.11 K	104.33 ± 0.94
208.2 K	106.33 ± 0.96
213.34 K	108.35 ± 0.98
218.49 K	110.69 ± 1
223.64 K	113.13 ± 1
228.8 K	115.06 ± 1
233.96 K	117.66 ± 1.1
239.1 K	120.1 ± 1.1
244.26 K	122.38 ± 1.1
249.39 K	124.56 ± 1.1
254.51 K	127.05 ± 1.1
259.67 K	129.62 ± 1.1
264.84 K	131.98 ± 1.2
269.99 K	134.13 ± 1.2
275.13 K	137.14 ± 1.2
280.31 K	138.73 ± 1.2
285.48 K	141.06 ± 1.2
290.65 K	143.42 ± 1.3
296.6 K	146.34 ± 1.3
302.17 K	148.97 ± 1.3
306.93 K	151.12 ± 1.3
312.15 K	153.27 ± 1.4
317.33 K	155.37 ± 1.4
322.49 K	157.74 ± 1.4
326.5 K	160.6 ± 1.4
330.48 K	161.44 ± 1.4
335.65 K	163.8 ± 1.4
340.82 K	165.96 ± 1.5
